Data reported in publication PMC7938888, “Antidepressant drugs act by directly binding to TRKB neurotrophin receptors” (Cell, 2021).

Tests used:
[1] = tested on: GluR1 subunit of AMPA receptors; assay: Surface GluR1 ELISA in cortical cells of TRKB.Y433F mice; assay type: cell-based, mouse
Description: (§1) Briefly, the MG87.TRKB cells or primary cortical cells from rat or mouse embryos, cultivated in clear bottom 96-well plates (ViewPlate 96, Perkin Elmer), were washed with ice-cold PBS and fixed with 100μl of 4% PFA per well. […] Following washing, the samples were incubated with HRP-conjugated anti-goat or anti-rabbit IgG (1:5000 in blocking buffer) for 1h at RT. The cells were washed 4x with 200μl of PBS for 10 min each. Finally, the chemiluminescent signal generated by reaction with ECL was analyzed in a plate reader.

[2] = tested on: GluR1 subunit of AMPA receptors; assay: Surface GluR1 ELISA in rat cortical cells; assay type: cell-based
Description: as §1

[3] = molecular target: T1, GFP-TRKB (Mus musculus, UniProt P15209); assay: Microscale thermophoresis (MST) in lysates of GFP-TRKB expressing HEK293T cells; assay type: binding; conditions: CHOL 10–100 μM, 15 min, HEK293T cell lysates; read-out: affinity of direct interaction with GFP-TRKB (MST)
T1 construct: wild-type GFP-tagged full length TRKB or the GFP-tagged Y433F TRKB mutant; host or cells: HEK293T
Description: Microscale Thermophoresis - MST - experiments were performed using Monolith NT.115 (Blue/Red) instrument (NanoTemper Technologies GmbH, Germany). The cell lysates of HEK293T cells expressing GFP-TRKB were used as a source of fluorescently labeled TRKB. HEK293T cells were transfected with GFP-fused TRKB as described and lysed 24h after transfection. […] The lysates of non-transfected HEK293T cells were used to evaluate background fluorescence, which appeared to be undetectable in current MST set up. […] The measurements were done in premium coated capillaries (NanoTemper Technologies GmbH, MO-K025) using LED source with 470nm and 50% infrared-laser power at 25°C. Hill model was used to evaluate binding affinity, each data point represents mean ΔFnorm values from four independent experiments. The bound fraction of the GFP-TRKB was determined and the fitting was performed using the Hill model method incorporated by the MO Affinity Analysis v2.3 software (NanoTemper Technologies).

[4] = tested on: Sprague-Dawley rats; assay: BDNF-induced LTP in dentate gyrus of anesthetized rats; assay type: in vivo, rat; conditions: anesthetized rats, 2 μl of 1 ug/ul over 30 min
Description: In vivo electrophysiology. Intrahippocampal BDNF infusion was performed as described previously ([Messaoudi et al., 1998]). The experiments were carried out on 20 adult male Sprague-Dawley rats (15 weeks old, Janvier, France). Rats were housed in the animal facility for 1-week prior to the start of drug administration. […]
For electrophysiological experiments, rats were anesthetized with an intraperitoneal injection of urethane (U2500, Sigma-Aldrich) 1.5 g/kg body weight, positioned in a stereotaxic frame. The body temperature was constantly monitored and maintained at 37°C with an electric heating pad. Holes were drilled in the skull and a concentric bipolar stimulating electrode (Tip separation 500micrometers; SNEX 100; Rhodes Medical Instruments, Woodland Hills, CA) was positioned in the angular bundle for stimulation of the medial perforant path (7.9 mm posterior to bregma, 4.2 mm lateral to the midline, and 2.5 mm below the dura. […]
Responses were allowed to stabilize for 1 hour at a stimulation intensity that produced a population spike 30% of maximum. […] Evoked responses were recorded for 120 min post infusion. Recorded field potentials were amplified, filtered (0.1 Hz to 10 kHz), and digitized (25 kHz). Electrophysiological data was analyzed using Datawave Technologies Software company. […]

[5] = molecular target: T2, TRKB.Y433F (Mus musculus, UniProt P15209, Y433F); assay: Cell-free ligand binding assay, TRKB.Y433F mutant; conditions: TRKB.Y433F; read-out: binding affinity of BDNF
T2 construct: wild-type GFP-tagged full length TRKB or the GFP-tagged Y433F TRKB mutant; host or cells: HEK293T
Description: The cell-free assays (binding assays) were performed in white 96-well plates, based on the protocol used for western-blotting or ELISA ([Baeza-Raja et al., 2016]; [Das et al., 2015]). The plates were precoated with anti-GFP, anti-FLAG, anti-TRK or anti-TRKB antibody (1:1000) in carbonate buffer (pH 9.8), ON at 4°C. Following blocking with 3% BSA in PBS buffer (2 h at RT), 120 ug of total protein from each sample (of lysates from HEK293T cells transfected to overexpress GFP-TRKB.wt or GFP-TRKB.Y433F) were added and incubated overnight at 4°C under agitation. […] The luminescence was determined via HRP-conjugated streptavidin (1:10000, 1h, RT) activity reaction with ECL by a plate reader. The luminescence signal from blank wells (containing all the reagents but the sample lystates, substituted by the blocking buffer) was used as background. The specific signal was then calculated by subtracting the values of blank wells from the values of the samples with matched concentration of the biotinylated ligand. For Figure 2E, the precipitated TRKB.wt or Y433F was incubated with tritiated imipramine (0-30μM) and the radioactive emission of the ligand was determined by scintillation (OptiPhase Supermix cocktail: #1200-439; MicroBeta2, Perkin-Elmer). The scintillation signal from blank wells was used as background, and the specific signal was then calculated by subtracting the values of blank wells from the values of the samples with matched concentration of the radioactive ligand.

T2 sequence (P15209 32-821 Y433F): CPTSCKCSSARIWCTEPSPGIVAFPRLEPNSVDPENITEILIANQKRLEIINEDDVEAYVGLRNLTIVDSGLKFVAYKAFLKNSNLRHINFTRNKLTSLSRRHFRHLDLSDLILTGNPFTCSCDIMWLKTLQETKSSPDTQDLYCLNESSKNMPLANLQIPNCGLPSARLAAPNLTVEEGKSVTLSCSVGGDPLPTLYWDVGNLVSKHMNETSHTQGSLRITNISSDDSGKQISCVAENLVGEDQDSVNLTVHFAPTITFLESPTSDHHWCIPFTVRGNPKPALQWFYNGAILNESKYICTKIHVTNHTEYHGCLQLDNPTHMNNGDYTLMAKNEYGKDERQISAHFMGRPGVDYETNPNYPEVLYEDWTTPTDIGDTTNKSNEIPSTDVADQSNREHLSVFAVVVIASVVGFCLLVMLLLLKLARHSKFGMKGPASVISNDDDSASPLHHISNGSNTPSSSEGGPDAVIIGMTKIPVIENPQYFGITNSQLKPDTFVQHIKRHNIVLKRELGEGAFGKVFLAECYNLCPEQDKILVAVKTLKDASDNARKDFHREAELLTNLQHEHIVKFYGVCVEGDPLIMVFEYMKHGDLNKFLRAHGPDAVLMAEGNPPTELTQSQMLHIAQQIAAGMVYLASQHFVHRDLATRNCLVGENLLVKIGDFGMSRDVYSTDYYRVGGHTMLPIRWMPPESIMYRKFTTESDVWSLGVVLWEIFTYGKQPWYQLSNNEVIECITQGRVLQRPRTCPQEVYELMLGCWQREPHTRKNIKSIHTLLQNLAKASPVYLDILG
T1 sequence (P15209 32-821): as the sequence (P15209 32-821 Y433F) above, with F402Y counted along it

CNCCC(Oc1ccc(C(F)(F)F)cc1)c1ccccc1 (centres unmarked) [FLX, fluoxetine]
increase in surface GluR1 in neurons from TRKB.Y433F mutant mice [1]: prevented
cell surface localization of GluR1 subunits of AMPA receptors [2]: increased cell surface localization of GluR1 subunits

CC(C)CCC[C@@H](C)[C@H]1CC[C@H]2[C@@H]3CC=C4C[C@@H](O)CC[C@]4(C)[C@H]3CC[C@]12C [CHOL, cholesterol]
Kd [3]: ~20 µM

B1: BDNF: brain-derived neurotrophic factor, TRKB ligand (protein, UniProt P23560 19-247, looked up)
Neurotrophic factor BDNF …: APMKEANIRGQGGLAYPGVRTHGTLESVNGPKAGSRGLTSLADTFEHVIEELLDEDQKVRPNEENNKDADLYTSRVMLSSQVPLEPPLLFLLEEYKNYLDAANMSMRVRRHSDPARRGELSVCDSISEWVTAADKKTAVDMSGGTVTVLEKVPVSKGQLKQYFYETKCNPMGYTKEGCRGIDKRHWNSQCRTTQSYVRALTMDSKKRIGWRFIRIDTSCVCTLTIKRGR
synaptic strength after infusion into the dentate gyrus [4]: significantly increased synaptic strength
Kd [5]: 2.9 pM
